Results as given in publication PMC3945819, “Ligand-Dependent Dynamics of the Active-Site Lid in Bacterial Dimethylarginine Dimethylaminohydrolase” (Biochemistry, 2014).
Changes are numbered by the printed parent chain. Entries after “also recorded” stand apart in the source; their conditions may differ.

Experiments:
[1] = biological target: T1, MDCC-Ser20Cys TM-PaDDAH (fl-TM-PaDDAH) (Pseudomonas aeruginosa, UniProt Q9I4E3, C249S/R40E/R98H/S20C); experiment: MDCC fluorescence titration, Ser20Cys variant; type: binding
T1 construct: polyhistidine (cleaved yes); made in house; host or cells: Escherichia coli BL21 (DE3)
T1 sequence (Q9I4E3 1-254 S20C/R40E/R98H/C249S): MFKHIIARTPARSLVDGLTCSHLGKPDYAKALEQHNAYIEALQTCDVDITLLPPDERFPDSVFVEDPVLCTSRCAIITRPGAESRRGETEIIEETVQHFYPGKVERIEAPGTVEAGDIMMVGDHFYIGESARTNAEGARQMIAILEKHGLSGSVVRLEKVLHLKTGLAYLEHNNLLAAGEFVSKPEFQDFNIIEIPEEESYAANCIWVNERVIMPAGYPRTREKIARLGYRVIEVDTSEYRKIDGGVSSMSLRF
Protocol: (§1) DM- or TM-PaDDAH constructs were mutated to contain an additional, solvent-exposed Cys residue at residue positions corresponding to Thr19, Ser 20, Ser84, and Asp244. Following expression, the purified proteins were each incubated in buffer A with 1 mM dithiothreitol (DTT) for 0.5 h. The sample was then passed through a desalting PD-10 column (GE Healthcare) in buffer A and concentrated to 100 μM. N-[2-(1-Maleimidyl)ethyl]-7-(diethylamino)coumarin-3-carboxamide (MDCC)[32] dissolved in DMF (20 mM) was added to a 2-fold excess, and the solution was incubated for 1 h. The reaction mixture was passed again through a fresh desalting column to remove unreacted label. The labeled protein concentration was measured by spectrophotometry (ε430 (MDCC) = 46 800 M^–1 cm^–1, ε280(MDCC) = 7470 M^–1 cm^–1, ε280(PaDDAH) = 18 910 M^–1 cm^–1). Formation of the product was assessed by electrospray ionization mass spectrometry.
(§2) PaDDAH fluorescence spectra were measured at 25 °C on an FP-6300 spectrofluorometer (Jasco Ltd.) in buffer A. MDCC fluorescence was excited at 430 nm and emission was recorded at 476 nm. The change in fluorescence emission intensity with ligand concentration was fit to a 1:1 binding isotherm using nonlinear least-squares Python code written in-house.

unmodified DM-PaDDAH = details: estimated previously for unmodified DM-PaDDAH; cited from earlier work
[2] = biological target: T2, MDCC-Ser20Cys DM-PaDDAH (fl-DM-PaDDAH) (Pseudomonas aeruginosa, UniProt Q9I4E3, R40E/R98H/S20C); experiment: Stopped-flow fluorescence binding kinetics with fl-DM-PaDDAH
T2 construct: the 254 residue DM-PaDDAH; polyhistidine (cleaved yes); made in house; host or cells: Escherichia coli BL21 (DE3)
T2 sequence (Q9I4E3 1-254 S20C/R40E/R98H): T1 sequence (Q9I4E3 1-254 S20C/R40E/R98H/C249S) with S249C
Protocol: (§3) Stopped-flow experiments were carried out in buffer A at 25 °C using a HiTech SF61 DX2 stopped-flow instrument equipped with a Xe/Hg lamp (TgK Scientific, UK). MDCC fluorescence was excited at 436 nm, and emission was detected by a photomultiplier after a 455 nm cutoff filter (Schott glass). Protein (1 μM) was mixed with the ligand (ADMA or L-citrulline) at various concentrations up to 4 mM. In the mixing cell, concentrations were half these. Each fluorescence time course was fitted to a single exponential function [drawing 1] with the observed first-order rate constant, kobs, and maximum fluorescence change, ΔFmax.
(§4) For mixing L-citrulline with MDCC-Ser20Cys TM-PaDDAH (fl-TM-PaDDAH), the dependence of kobs on L-citrulline concentration ([L-cit]) was linearly fitted for the association reaction: [drawing 2] [drawing 3] For the mixing of L-citrulline with MDCC-Ser20Cys DM-PaDDAH (fl-DM-PaDDAH) conversion of the substrate to products is included, using this reaction scheme: [drawing 4] [drawing 5] where kcat is the rate constant for the conversion of the enzyme–substrate complex to dissociated products. Under the pseudo-first-order conditions of the experiment, where the change in fluorescence was attributed to the formation of the fl-DM-PaDDAH/ADMA complex, the dependence of kobs on ADMA concentration was fitted to a straight-line graph: [drawing 6]

TM-PaDDAH = biological target: T3, TM-PaDDAH (Pseudomonas aeruginosa, UniProt Q9I4E3, C249S/R40E/R98H); experiment: Substrate conversion by TM-PaDDAH observed by 1D 1H NMR; type: biochemical; details: conversion of ADMA to DMA and L-citrulline, high TM-PaDDAH concentration, over hours
T3 construct: polyhistidine (cleaved yes); made in house; host or cells: Escherichia coli BL21 (DE3)
T3 sequence (Q9I4E3 1-254 R40E/R98H/C249S): T1 sequence (Q9I4E3 1-254 S20C/R40E/R98H/C249S) with C20S
Protocol: (§5) For NMR measurements, the protein samples were prepared at 0.8 mM concentration (for resonance assignments and relaxation measurements) or 0.3 mM (for ligand titrations) in buffer A, supplemented with 10% v/v D2O. Saturating concentrations of L-citrulline were included in the bound state samples: 15 mM for DM-PaDDAH and 1.0 mM for TM-PaDDAH. A variety of NMR spectrometers were used during this work: resonance assignments were obtained from 3D triple resonance data sets (HNCA, HNCACB, CBCACONH, HNCO, HN(CA)CO)[12] obtained at either 600 or 700 MHz ^1H frequency. Two-dimensional ^15N, ^1H-HSQC experiments to monitor ligand binding were recorded using a 700 MHz instrument. ^15N relaxation measurements[13],[14] were performed at both 600 and 800 MHz. The majority of the data sets were recorded using a cryogenically cooled triple resonance probe, with the sample temperature maintained at a calibrated 25 °C. The pulse sequences employed H2O-selective “flip-back” pulses and WATERGATE to minimize the effects of H^N-resonance cross-saturation.[15],[16] Ligand-induced chemical shift perturbations differences for ligand titrations were computed using the formula Δδ = [(Δδ^1H^N)^2 + (Δδ^15N/5)^2]^1/2.

MDCC-Ser84Cys TM-PaDDAH = biological target: T4, MDCC-Ser84Cys TM-PaDDAH (Pseudomonas aeruginosa, UniProt Q9I4E3, C249S/R40E/R98H/S84C); experiment: MDCC fluorescence titration, Ser84Cys variant; type: binding; details: static MDCC fluorescence titration, 25 °C, buffer A; fluorescence decreased; read-out: equilibrium dissociation constant
T4 construct: polyhistidine (cleaved yes); made in house; host or cells: Escherichia coli BL21 (DE3)
T4 sequence (Q9I4E3 1-254 R40E/S84C/R98H/C249S): T1 sequence (Q9I4E3 1-254 S20C/R40E/R98H/C249S) with C20S, S84C
Protocol: as §1, §2

[3] = biological target: T1, MDCC-Ser20Cys TM-PaDDAH (fl-TM-PaDDAH); experiment: Stopped-flow fluorescence binding kinetics with fl-TM-PaDDAH
Protocol: as §3, §4

[4] = biological target: T5, DM-PaDDAH (Arg40Glu/Arg98His double mutant PaDDAH) (Pseudomonas aeruginosa, UniProt Q9I4E3, R40E/R98H); experiment: NMR 15N,1H-HSQC ligand titration of DM-PaDDAH; type: binding; details: for binding of byproduct to the protein by NMR titration: separate NMR titrations
T5 construct: the 254 residue DM-PaDDAH; polyhistidine (cleaved yes); made in house; host or cells: Escherichia coli BL21 (DE3)
T5 sequence (Q9I4E3 1-254 R40E/R98H): T1 sequence (Q9I4E3 1-254 S20C/R40E/R98H/C249S) with C20S, S249C
Protocol: as §5

MDCC-Asp244Cys TM-PaDDAH = biological target: T6, MDCC-Asp244Cys TM-PaDDAH (Pseudomonas aeruginosa, UniProt Q9I4E3, C249S/D244C/R40E/R98H); experiment: MDCC fluorescence titration, Asp244Cys variant; type: binding; details: static MDCC fluorescence titration, 25 °C, buffer A; fluorescence decreased; read-out: equilibrium dissociation constant
T6 construct: polyhistidine (cleaved yes); made in house; host or cells: Escherichia coli BL21 (DE3)
T6 sequence (Q9I4E3 1-254 R40E/R98H/D244C/C249S): T1 sequence (Q9I4E3 1-254 S20C/R40E/R98H/C249S) with C20S, D244C
Protocol: as §1, §2

MDCC-Thr19Cys TM-PaDDAH = biological target: T7, MDCC-Thr19Cys TM-PaDDAH (Pseudomonas aeruginosa, UniProt Q9I4E3, C249S/R40E/R98H/T19C); experiment: MDCC fluorescence titration, Thr19Cys variant; type: binding; details: static MDCC fluorescence titration, 25 °C, buffer A; fluorescence decreased; read-out: equilibrium dissociation constant
T7 construct: polyhistidine (cleaved yes); made in house; host or cells: Escherichia coli BL21 (DE3)
T7 sequence (Q9I4E3 1-254 T19C/R40E/R98H/C249S): T1 sequence (Q9I4E3 1-254 S20C/R40E/R98H/C249S) with T19C, C20S
Protocol: as §1, §2

wild-type PaDDAH = details: wild-type protein; read-out: Ki^(L-cit); cited from earlier work
[5] = biological target: T8, TM-PaDDAH (Arg40Glu/Arg98His/Cys249Ser triple mutant PaDDAH) (Pseudomonas aeruginosa, UniProt Q9I4E3, C249S/R40E/R98H); experiment: NMR 15N,1H-HSQC ligand titration of TM-PaDDAH; type: binding; details: NMR peak intensity titration (Gly24, Glu158, Lys159), 0.3 mM TM-PaDDAH, 25 °C; read-out: dissociation constant KD^(TM/L-cit)
T8 construct: polyhistidine (cleaved yes); made in house; host or cells: Escherichia coli BL21 (DE3)
T8 sequence (Q9I4E3 1-254 R40E/R98H/C249S): T1 sequence (Q9I4E3 1-254 S20C/R40E/R98H/C249S) with C20S
Protocol: as §5

Cys249 = Cys249 (UniProt position 249, DGGVSCMSLRF); details: ligand-free (absence of ligand); cited from earlier work

Molecule: CN(C)C(=N)NCCCC(N)C(=O)O (stereo not drawn) [ADMA, asymmetric N^η,N^η-dimethylarginine]
- fluorescence response / binding of substrate to fl-TM-PaDDAH ([1]; low protein concentrations of fluorescence experiments): no fluorescence change; also recorded: no evidence of substrate binding or turnover
- kcat (unmodified DM-PaDDAH): 0.5 s^–1
- binding tighter than for the reaction product L-citrulline ([2]; KD^(DM/ADMA) versus KD^(DM/L-cit)): 30 fold
- koff^(DM/ADMA) ([2]; assuming kcat = 0.5 s^–1): 2.0 s^–1
- kon^(DM/ADMA) ([2]; stopped-flow, linear fit of kobs vs concentration, 25 °C): 1.8 × 10^5 M^–1 s^–1
- catalytic activity of the mutant enzyme (TM-PaDDAH): ~0.04 h^–1

Molecule: NC(=O)NCCC[C@H](N)C(=O)O [L-citrulline]
- Kd (MDCC-Ser84Cys TM-PaDDAH): 15.7 ± 2.8 µM
- Kd ([1]; static MDCC fluorescence titration, 25 °C, buffer A, fluorescence increased, read-out: equilibrium dissociation constant): 7.2 ± 1.6 µM
- Kd ([3]; from stopped-flow binding kinetics, read-out: predicted equilibrium dissociation constant KD^(TM/L-cit) (= koff/kon)): 8.4 µM
- koff ([3]; stopped-flow, linear fit of kobs vs concentration, 25 °C, read-out: koff^(TM/L-cit)): 0.86 s⁻¹
- kon ([3]; stopped-flow, linear fit of kobs vs concentration, 25 °C, read-out: kon^(TM/L-cit)): 100000 M⁻¹ s⁻¹
- Kd ([4]; NMR chemical shift titration, 0.3 mM DM-PaDDAH, 1:1 model, buffer A pH 7.0, 25 °C, read-out: dissociation constant KD^(DM/L-cit)): 3600 ± 100 µM
- koff ([4]; from NMR KD and assumed kon similar to kon^(TM/L-cit) and kon^(DM/ADMA), read-out: koff^(DM/L-cit) predicted): ~500 s⁻¹
- fluorescence signal for binding to fl-DM-PaDDAH [2]: no signal for binding
- Kd (MDCC-Asp244Cys TM-PaDDAH): 23.5 ± 2.7 µM
- Kd (MDCC-Thr19Cys TM-PaDDAH): 10.8 ± 1.1 µM
- Ki (wild-type PaDDAH): 8400 µM
- Kd [5]: 3.5 ± 1.5 µM

Molecule: CNC [dimethylamine]
- binding of byproduct to the protein by NMR titration [4]: did not detectably bind

Molecule: CN [methylamine]
- binding of byproduct to the protein by NMR titration [4]: did not detectably bind

Molecule: Dimethylarginine dimethylaminohydrolase (PaDDAH) (Pseudomonas aeruginosa)
- pKa (Cys249): 8.8
